Laboratory results reported in PubChem BioAssay AID328 (DTP/NCI, 2004).
Values joined by “and” are separate entries in the source; they are usually repeats but may differ in a detail not shown here. Equal values may be shown once. Inconclusive results and toxic doses are left out.

Tested on: BDF1 mice, P388 leukemia ip, median survival T/C
Experiment: NCI In Vivo Anticancer Drug Screen. Data for tumor model P388 Leukemia (intraperitoneal) in B6D2F1 (BDF1) mice
Settings: endpoint: median survival time, higher = longer survival
Outline: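 T/C = treated-group survival ÷ vehicle-control survival; tumour transplanted into mice before dosing.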

[1] = dose: 100.0 mg/kg/injection, schedule: Q01DX009 (ip), vehicle: saline
[2] = dose: 12.5 mg/kg/injection, schedule: Q01DX009 (ip), vehicle: saline with Tween-80
[3] = dose: 100.0 mg/kg/injection, schedule: Q01DX009 (ip), vehicle: Klucel (hydroxypropylcellulose) (HPC)
[4] = dose: 200.0 mg/kg/injection, schedule: Q01DX009 (ip), vehicle: Klucel (hydroxypropylcellulose) (HPC)
[5] = dose: 400.0 mg/kg/injection, schedule: Q01DX009 (ip), vehicle: Klucel (hydroxypropylcellulose) (HPC)
[6] = dose: 100.0 mg/kg/injection, schedule: Q04DX003 (ip), vehicle: Klucel (hydroxypropylcellulose) (HPC)
[7] = dose: 50.0 mg/kg/injection, schedule: Q01DX009 (ip), vehicle: saline with Tween-80
[8] = dose: 100.0 mg/kg/injection, schedule: Q01DX009 (ip), vehicle: saline with Tween-80
[9] = dose: 200.0 mg/kg/injection, schedule: Q01DX009 (ip), vehicle: saline with Tween-80
[10] = dose: 25.0 mg/kg/injection, schedule: Q01DX009 (ip), vehicle: saline with Tween-80
[11] = dose: 200.0 mg/kg/injection, schedule: Q04DX003 (ip), vehicle: Klucel (hydroxypropylcellulose) (HPC)
[12] = dose: 400.0 mg/kg/injection, schedule: Q04DX003 (ip), vehicle: Klucel (hydroxypropylcellulose) (HPC)

In the case of `Cn1c[n+](C)ccc1=O`, the T/C (dose: 100.0 mg/kg/injection, schedule: Q01DX009 (ip), vehicle: water) is reported as 97 % of control, the T/C (dose: 100.0 mg/kg/injection, schedule: Q04DX003 (ip), vehicle: water) is reported as 91 % of control and the T/C (dose: 200.0 mg/kg/injection, schedule: Q01DX009 (ip), vehicle: water) is reported as 107 % of control. For the same molecule, the T/C (dose: 200.0 mg/kg/injection, schedule: Q04DX003 (ip), vehicle: water) was 88 % of control, the T/C (dose: 400.0 mg/kg/injection, schedule: Q01DX009 (ip), vehicle: water) was 97 % of control and the T/C (dose: 400.0 mg/kg/injection, schedule: Q04DX003 (ip), vehicle: water) was 89 % of control.

With `BrC1C2CC(c3ccccc32)C1Br` (stereo not given) the T/C (dose: 100.0 mg/kg/injection, schedule: Q01DX001 (ip), vehicle: saline) was 109 % of control, the T/C [1] was 100 % of control and the T/C (dose: 100.0 mg/kg/injection, schedule: Q04DX003 (ip), vehicle: saline) was 100 % of control. The T/C (dose: 200.0 mg/kg/injection, schedule: Q01DX001 (ip), vehicle: saline) was 104 % of control, the T/C (dose: 200.0 mg/kg/injection, schedule: Q01DX009 (ip), vehicle: saline) was 104 % of control and the T/C (dose: 200.0 mg/kg/injection, schedule: Q04DX003 (ip), vehicle: saline) was 91 % of control. For the same molecule, the T/C (dose: 400.0 mg/kg/injection, schedule: Q01DX001 (ip), vehicle: saline) was 100 % of control, the T/C (dose: 400.0 mg/kg/injection, schedule: Q01DX009 (ip), vehicle: saline) was 109 % of control and the T/C (dose: 400.0 mg/kg/injection, schedule: Q04DX003 (ip), vehicle: saline) was 104 % of control.

For `N#Cc1nc2nc(C(F)(F)F)[nH]c2nc1C#N`, the T/C (dose: 6.25 mg/kg/injection, schedule: Q04DX003 (ip), vehicle: saline with Tween-80) was 100 % of control, the T/C [2] was 95 % of control and the T/C (dose: 12.5 mg/kg/injection, schedule: Q04DX003 (ip), vehicle: saline with Tween-80) was 100 % of control. For the same molecule, the T/C (dose: 25.0 mg/kg/injection, schedule: Q04DX003 (ip), vehicle: saline with Tween-80) was 87 % of control and 90 % of control.

For `CNC(=O)C(C)(C)c1ccccc1`, the T/C [3] was 90 % of control, the T/C [4] was 90 % of control and the T/C [5] was 104 % of control.

In the case of `O=C(CCN1CC1)Nc1ccc(Cl)c(Cl)c1`, the T/C (dose: 25.0 mg/kg/injection, schedule: Q04DX003 (ip), vehicle: Klucel (hydroxypropylcellulose) (HPC)) is reported as 90 % of control, the T/C (dose: 50.0 mg/kg/injection, schedule: Q04DX003 (ip), vehicle: Klucel (hydroxypropylcellulose) (HPC)) is reported as 104 % of control and the T/C [6] is reported as 100 % of control.

For `N#Cc1c(SCc2ccc(Cl)cc2)nsc1Nc1ccc(Cl)cc1`, the T/C [7] was 108 % of control.

For `CCCCC(=O)OCC(=O)[C@]1(O)Cc2c(O)c3c(c(O)c2[C@@H](OC2CC(NC(=O)C(F)(F)F)C(O)C(C)O2)C1)C(=O)c1c(OC)cccc1C3=O` (stereo not given in full), the T/C (dose: 5.0 mg/kg/injection, schedule: Q01DX004 (ip), vehicle: other) was 162 % of control, the T/C (dose: 10.0 mg/kg/injection, schedule: Q01DX004 (ip), vehicle: other) was 155 % of control and 189 % of control and the T/C (dose: 13.0 mg/kg/injection, schedule: Q01DX004 (ip), vehicle: saline with Tween-80) was 203 % of control. The T/C (dose: 20.0 mg/kg/injection, schedule: Q01DX004 (ip), vehicle: other) was 288 % of control and 187 % of control, the T/C (dose: 21.0 mg/kg/injection, schedule: Q01DX004 (ip), vehicle: saline with Tween-80) was 221 % of control and the T/C (dose: 21.6 mg/kg/injection, schedule: Q01DX004 (ip), vehicle: saline with Tween-80) was 221 % of control. For the same molecule, the T/C (dose: 25.2 mg/kg/injection, schedule: Q04DX003 (ip), vehicle: other) was 175 % of control, the T/C (dose: 30.0 mg/kg/injection, schedule: Q01DX004 (ip), vehicle: other) was 263 % of control and 351 % of control and the T/C (dose: 36.0 mg/kg/injection, schedule: Q01DX004 (ip), vehicle: saline with Tween-80) was 353 % of control. The T/C (dose: 40.0 mg/kg/injection, schedule: Q01DX004 (ip), vehicle: other) was 98 % of control, the T/C (dose: 42.0 mg/kg/injection, schedule: Q04DX003 (ip), vehicle: other) was 262 % of control and the T/C (dose: 50.0 mg/kg/injection, schedule: Q01DX004 (ip), vehicle: other) was 86 % of control. The T/C (dose: 70.0 mg/kg/injection, schedule: Q04DX003 (ip), vehicle: other) was 506 % of control.

`CCOc1ccn(CC(=O)c2ccc(Cl)s2)c(=O)n1` was tested, and the T/C [7] was 106 % of control, the T/C [8] was 113 % of control and the T/C [9] was 97 % of control. For the same molecule, the T/C (dose: 400.0 mg/kg/injection, schedule: Q01DX009 (ip), vehicle: saline with Tween-80) was 106 % of control.

For `COc1cccc(/C=N/NC(=O)C[n+]2ccccc2)c1OC`, the T/C [2] was 104 % of control, the T/C [10] was 100 % of control and the T/C [7] was 104 % of control. For the same molecule, the T/C (dose: 50.0 mg/kg/injection, schedule: Q04DX003 (ip), vehicle: saline with Tween-80) was 100 % of control.

With `C/C(CCCCl)=N/NC(N)=S` the T/C (dose: 75.0 mg/kg/injection, schedule: Q01DX009 (ip), vehicle: saline) was 86 % of control and the T/C (dose: 115.0 mg/kg/injection, schedule: Q01DX009 (ip), vehicle: saline) was 86 % of control.

For `COc1ccc(/C(C#N)=C2C=C(Cl)/C(=N/O)C=C/2Cl)cc1`, the T/C (dose: 100.0 mg/kg/injection, schedule: Q01DX001 (ip), vehicle: Klucel (hydroxypropylcellulose) (HPC)) was 90 % of control, the T/C [3] was 95 % of control and the T/C (dose: 200.0 mg/kg/injection, schedule: Q01DX001 (ip), vehicle: Klucel (hydroxypropylcellulose) (HPC)) was 90 % of control. For the same molecule, the T/C [4] was 87 % of control, the T/C (dose: 400.0 mg/kg/injection, schedule: Q01DX001 (ip), vehicle: Klucel (hydroxypropylcellulose) (HPC)) was 86 % of control and the T/C [5] was 104 % of control.

`CC(=O)Nc1cccc(N(CCOS(C)(=O)=O)CCOS(C)(=O)=O)c1` was tested, and the T/C (dose: 13.0 mg/kg/injection, schedule: Q04DX003 (ip), vehicle: saline sonified) was 95 % of control, the T/C (dose: 20.0 mg/kg/injection, schedule: Q04DX003 (ip), vehicle: saline sonified) was 95 % of control and the T/C (dose: 30.0 mg/kg/injection, schedule: Q04DX003 (ip), vehicle: saline sonified) was 100 % of control.

With `COc1ccc(C2=CCCCC2)cc1` the T/C [8] was 103 % of control, the T/C (dose: 100.0 mg/kg/injection, schedule: Q04DX003 (ip), vehicle: saline with Tween-80) was 104 % of control and the T/C [9] was 103 % of control. For the same molecule, the T/C (dose: 200.0 mg/kg/injection, schedule: Q04DX003 (ip), vehicle: saline with Tween-80) was 104 % of control and the T/C (dose: 400.0 mg/kg/injection, schedule: Q04DX003 (ip), vehicle: saline with Tween-80) was 95 % of control.

With `CC(=O)/C(N=Nc1ccccc1)=C(\C)O` the T/C (dose: 25.0 mg/kg/injection, schedule: Q01DX009 (sc), vehicle: olive oil, sesame oil, peanut oil) was 100 % of control, the T/C (dose: 50.0 mg/kg/injection, schedule: Q01DX009 (sc), vehicle: olive oil, sesame oil, peanut oil) was 96 % of control and the T/C (dose: 100.0 mg/kg/injection, schedule: Q01DX009 (sc), vehicle: olive oil, sesame oil, peanut oil) was 112 % of control.

`O=C(CCCCl)CC(O)(C(F)(F)F)C(F)(F)F` was tested, and the T/C [2] was 95 % of control, the T/C [10] was 100 % of control and the T/C [7] was 115 % of control. The T/C [8] was 104 % of control.

`O=S(=O)(Nc1c(Cl)c(Cl)c(Cl)c(Cl)c1NS(=O)(=O)c1ccccc1)c1ccccc1` was tested, and the T/C [6] was 100 % of control, the T/C [11] was 105 % of control and the T/C [12] was 100 % of control.

In the case of `c1ccc2c(c1)ccc1c2c[n+](CCCCCCCC[n+]2cc3c4ccccc4ccc3c3ccccc32)c2ccccc12`, the T/C (dose: 1.56 mg/kg/injection, schedule: Q01DX009 (ip), vehicle: other) is reported as 165 % of control, the T/C (dose: 6.25 mg/kg/injection, schedule: Q01DX009 (ip), vehicle: other) is reported as 98 % of control and the T/C (dose: 12.5 mg/kg/injection, schedule: Q01DX009 (ip), vehicle: other) is reported as 106 % of control. For the same molecule, the T/C (dose: 25.0 mg/kg/injection, schedule: Q01DX009 (ip), vehicle: other) was 95 % of control.

In the case of `OC(c1ccc(Cl)cc1)C1CCNCC1` (stereo not given), the T/C (dose: 50.0 mg/kg/injection, schedule: Q01DX009 (ip), vehicle: saline) is reported as 90 % of control and the T/C [1] is reported as 102 % of control.

In the case of `C/C=C/C[P+](C)(c1ccccc1)c1ccccc1`, the T/C (dose: 0.2 mg/kg/injection, schedule: Q01DX009 (ip), vehicle: saline) is reported as 104 % of control, the T/C (dose: 0.4 mg/kg/injection, schedule: Q01DX009 (ip), vehicle: saline) is reported as 103 % of control and the T/C (dose: 0.8 mg/kg/injection, schedule: Q01DX009 (ip), vehicle: saline) is reported as 104 % of control.

In the case of `O=c1oc2ccccc2cc1-c1csc(/C=N/N2CCOCC2)n1`, the T/C [7] is reported as 113 % of control and the T/C [8] is reported as 104 % of control.

For `COc1cc(Br)c2c(c1OC)C(=O)CC2`, the T/C [3] was 104 % of control, the T/C [6] was 100 % of control and the T/C [4] was 95 % of control. For the same molecule, the T/C [11] was 91 % of control, the T/C [5] was 100 % of control and the T/C [12] was 95 % of control.
